Source: article PMC11470957, “Principles of paralog-specific targeted protein degradation engaging the C-degron E3 KLHDC2” (Nature Communications, 2024)
Several values for one entry are separate records, joined by “and”; a condition that tells them apart may be missing. Equal entries are not always repeated. One block for each compound: values may come before it.

Tests used:
KLHDC2^SBD [1] = target: T1, KLHDC2^SBD (Homo sapiens, UniProt Q9Y2U9); assay: TR-FRET assay, competition with di-Gly degron peptide binding to KLHDC2^SBD; set-up: KLHDC2^SBD (15-361) and its Avi-tagged counterpart were expressed in E. coli Rosetta2 cells; 6XHis-MBP (N, cleaved yes); made in house; host or cells: E. coli Rosetta2; conditions: for IC50: inhibition of KLHDC2^SBD binding to a di-Gly degron peptide, read-out: TR-FRET IC50
T1 sequence (Q9Y2U9 15-361): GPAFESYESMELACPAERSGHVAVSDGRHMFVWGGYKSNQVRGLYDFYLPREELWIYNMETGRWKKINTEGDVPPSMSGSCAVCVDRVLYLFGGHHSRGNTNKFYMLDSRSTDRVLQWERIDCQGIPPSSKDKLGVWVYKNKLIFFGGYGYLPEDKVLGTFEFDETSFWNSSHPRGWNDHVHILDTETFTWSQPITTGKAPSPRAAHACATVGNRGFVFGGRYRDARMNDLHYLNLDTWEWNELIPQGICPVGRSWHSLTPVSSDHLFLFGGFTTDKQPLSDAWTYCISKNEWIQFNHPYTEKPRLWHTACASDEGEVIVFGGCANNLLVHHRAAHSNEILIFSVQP
Experimental: TR-FRET assays were carried out in black 384-well microtiter plates at a final volume of 20 μL per well. An assay cocktail was prepared as a mixture of 50 nM Biotin-KLHDC2 SBD, 20 nM AlexaFluor488-RIC8B peptide, 2.5 nM Tb-Streptavidin (ThermoFisher) in assay buffer (25 mM HEPES, 100 mM NaCl, 0.1% Triton X-100, 0.5 mM DTT, pH 7.5). The assay cocktail was incubated for thirty-minutes at room temperature and 20 μl distributed to assay plates. Molecules were distributed to the plates at the indicated concentration and the assay mixture was incubated for 1 h at room temperature prior to measuring the TR-FRET signal with a PHERAstar FS plate reader (BMG Labtech) equipped with modules for excitation at 337 nm and emissions at 490 and 520 nm. The integration start was set to 100 µs and the integration time to 200 µs. The number of flashes was fixed at 100. The ratio of 520/490 was used as TR-FRET signal in calculations. Assay endpoints were normalized to 100% (buffer only) and used for curve fitting in Prism.

KLHDC2^SBD [2] = target: T1, KLHDC2^SBD; assay: Surface plasmon resonance binding to KLHDC2; set-up: KLHDC2^SBD (15-361) and its Avi-tagged counterpart were expressed in E. coli Rosetta2 cells; 6XHis-MBP (N, cleaved yes); made in house; host or cells: E. coli Rosetta2; conditions: for SPR Rmax / SPR dissociation constant kd: n=1; for Kd: read-out: SPR Kd; for SPR Response: FigS2d
Experimental: Surface plasmon resonance (SPR) was utilized to determine kinetic parameters and binding affinity of KLHDC2 substrates using a PioneerFE (Sartorius). Experiments were carried out in 20 mM Tris, 200 mM NaCl, 1 mM TCEP, 0.01% Brij35, and 1% DMSO at pH 7.4 as a running buffer with a 100 µL/min flow rate at 20 °C.
The 10xHis-KLHDC2 was immobilized onto a Ni-NTA-coated biosensor chip (HisCap). The chip surface was conditioned using 10 mM HCl, 50 mM NaOH, and 0.1% SDS (50 µL at 100 µL/min) twice, followed by a 100 mM Tris buffer wash (100 µL at 100 µL/min). The surface was then activated using an injection of 0.5 M EDTA (125 µL at 25 µL/min) followed by an injection of 5 mM NiCl2 (125 µL at 25 µL/min). […] Channel 2 was treated identically to channel 3 except for protein loading to be used as a reference channel. […] 100% of the loop was injected with a 300 s dissociation time. All samples were run in triplicate. Data was analyzed using Qdat software and fit to a simple 1-site model.
The SPR experiments were performed to determine the binding affinities (KD) of KLHDC2-SJ46411 and KLHDC2-SJ46418 complexes. All the experiments were performed using a Biacore 1S+ instrument. […] The running buffer consisted of 20 mM Tris pH 7.5, 200 mM NaCl, 1 mM TCEP, 0.01% Brij35, and 4% DMSO. […] In brief, before the immobilization, the sensor chip surface was conditioned by injecting a mixture of (3:1 v/v) 8 M guanidine hydrochloride and 1 M NaOH at a flow rate of 5 μL/min for 2 min for two times. Then, running buffer was injected at a 30 μl/min flow rate for 1 min 3 times. Next, the Biotin CAPture reagent was injected at a flow rate of 2 μl/min for 5 min. Then, biotinylated KLHDC2 was only injected onto the active channel (channel 2).
Sample preparation was carried out precisely the same as SJ46411. All experiments were performed using a multi-cycle analysis method with a 30 μl/min flow rate, 120 S association, and 240 s dissociation time. All data were reference subtracted and corrected for DMSO mismatch. The sensorgrams were analyzed using Biacore insight evaluation software, and KD was determined using the 1:1 steady-state affinity fitting. Finally, all the analyzed data was replotted using GraphPad Prizm 10 software.

KLHDC2^SBD [3] = target: T1, KLHDC2^SBD; assay: ITC, binary binding of small molecule to KLHDC2^SBD
[4] = ITC Kd, cell: ligand, syringe: KLHDC2^SBD
[5] = cell: ligand, syringe: KLHDC2^SBD

SMILES: O=C(O)CNC(=O)Cc1csc(-c2ccccc2F)n1 [SJ6145]
% Inhibition, normalized TR-FRET dose response (KLHDC2^SBD [1]; Log Concentration (uM 2.8348)): 0% | % Inhibition, normalized TR-FRET dose response (KLHDC2^SBD [1]; Log Concentration (uM 3.13583)): 5.022% | % Inhibition, normalized TR-FRET dose response (KLHDC2^SBD [1]; Log Concentration (uM 4.64098)): 41.3917% | % Inhibition, normalized TR-FRET dose response (KLHDC2^SBD [1]; Log Concentration (uM 4.94201)): 60.6887% | % Inhibition, normalized TR-FRET dose response (KLHDC2^SBD [1]; Log Concentration (uM 5.24304)): 71.5686% | % Inhibition, normalized TR-FRET dose response (KLHDC2^SBD [1]; Log Concentration (uM 5.54407)): 79.1487% | IC50 (KLHDC2^SBD [1]): 42000 nM | SPR Rmax (KLHDC2^SBD [2]): 8.25 +/- 0.01 | SPR dissociation constant kd (KLHDC2^SBD [2]): 4.19 s⁻¹ | Kd (KLHDC2^SBD [2]): 16900 nM

SMILES: COCOc1ccc(-c2nc(CC(=O)NCC(=O)O)cs2)c(Cl)c1 [SJ10278]
% Inhibition, normalized TR-FRET dose response (KLHDC2^SBD [1]; Log Concentration 2, Rep1): 8.293% | % Inhibition, normalized TR-FRET dose response (KLHDC2^SBD [1]; Log Concentration 2, Rep2): 0% | % Inhibition, normalized TR-FRET dose response (KLHDC2^SBD [1]; Log Concentration 2, Rep3): 0% | % Inhibition, normalized TR-FRET dose response (KLHDC2^SBD [1]; Log Concentration 3.39794, Rep1): 11.5657% | % Inhibition, normalized TR-FRET dose response (KLHDC2^SBD [1]; Log Concentration 3.39794, Rep2): 0% | % Inhibition, normalized TR-FRET dose response (KLHDC2^SBD [1]; Log Concentration 3.39794, Rep3): 5.531% | % Inhibition, normalized TR-FRET dose response (KLHDC2^SBD [1]; Log Concentration 3.87506, Rep1): 26.5428% | % Inhibition, normalized TR-FRET dose response (KLHDC2^SBD [1]; Log Concentration 3.87506, Rep2): 8.417% | % Inhibition, normalized TR-FRET dose response (KLHDC2^SBD [1]; Log Concentration 3.87506, Rep3): 8.069% | % Inhibition, normalized TR-FRET dose response (KLHDC2^SBD [1]; Log Concentration 4.35218, Rep1): 43.4059% | % Inhibition, normalized TR-FRET dose response (KLHDC2^SBD [1]; Log Concentration 4.35218, Rep2): 37.2745% | % Inhibition, normalized TR-FRET dose response (KLHDC2^SBD [1]; Log Concentration 4.35218, Rep3): 43.973% | % Inhibition, normalized TR-FRET dose response (KLHDC2^SBD [1]; Log Concentration 4.81291, Rep1): 67.7021% | % Inhibition, normalized TR-FRET dose response (KLHDC2^SBD [1]; Log Concentration 4.81291, Rep2): 64.6478% | % Inhibition, normalized TR-FRET dose response (KLHDC2^SBD [1]; Log Concentration 4.81291, Rep3): 77.6282% | IC50 (KLHDC2^SBD [1]): 24100 nM | SPR Rmax (KLHDC2^SBD [2]): 11.33 +/- 0.02 | SPR dissociation constant kd (KLHDC2^SBD [2]): 2.03 s⁻¹ | Kd (KLHDC2^SBD [2]): 8800 nM and 8790 nM

Kd (KLHDC2^SBD [3]; [4]): ~260 nM and 220 nM | Kd (KLHDC2^SBD [3]; Kd, ITC, syringe KLHDC2, cell compound, Rep1, Rep2): 202 nM and 238 nM | ITC -TΔS (KLHDC2^SBD [3]; [5]): -1.52 +/- 0.04 kcal/mol-1 | ITC stoichiometry of binding N (KLHDC2^SBD [3]; [5]): 0.9 | ITC ΔG (KLHDC2^SBD [3]; [5]): -8.81 +/- 0.07 kcal/mol-1 | ITC ΔH (KLHDC2^SBD [3]; [5]): -7.30 +/- 0.10 kcal/mol-1 | % Inhibition, normalized TR-FRET dose response (KLHDC2^SBD [1]; Log Concentration 2.39794, Rep1-Rep3): 6.354% and 5.4752% and 4.71% | % Inhibition, normalized TR-FRET dose response (KLHDC2^SBD [1]; Log Concentration 2.64098, Rep1-Rep3): 7.948% and 6.2789% and 8.198% | % Inhibition, normalized TR-FRET dose response (KLHDC2^SBD [1]; Log Concentration 3.273, Rep1-Rep3): 31.9514% and 32.2878% and 31.935% | % Inhibition, normalized TR-FRET dose response (KLHDC2^SBD [1]; Log Concentration 3.87506, Rep1-Rep3): 66.95% and 63.4771% and 63.8138% | % Inhibition, normalized TR-FRET dose response (KLHDC2^SBD [1]; Log Concentration 4.39794, Rep1-Rep3): 94.0253% and 93.427% and 93.3896% | % Inhibition, normalized TR-FRET dose response (KLHDC2^SBD [1]; Log Concentration 4.69897, Rep1-Rep3): 96.203% and 95.4411% and 96.0366% | % Inhibition, normalized TR-FRET dose response (KLHDC2^SBD [1]; Log Concentration 4.94201, Rep1-Rep3): 96.4266% and 96.3416% and 96.2278% | IC50 (KLHDC2^SBD [1]): 3900 nM | SPR Response (KLHDC2^SBD [2]; analyte 0.146484 μM): 4.647 RU | SPR Response (KLHDC2^SBD [2]; analyte 0.292969 μM): 7.784 RU | SPR Response (KLHDC2^SBD [2]; analyte 0.585938 μM): 11.5982 RU | SPR Response (KLHDC2^SBD [2]; analyte 2.34375 μM): 17.8875 RU | SPR Response (KLHDC2^SBD [2]; analyte 4.6875 μM): 19.5092 RU | SPR Response (KLHDC2^SBD [2]; analyte 9.375 μM): 20.5795 RU | SPR Rmax (KLHDC2^SBD [2]): 24.50 +/- 0.30 | Kd (KLHDC2^SBD [2]): 500 nM and 526 nM
SMILES: O=C(O)CNC(=O)Cc1csc(-c2ccc3ccccc3c2)n1 [SJ46411]

SMILES: Cc1sc2c(c1C)C(c1ccc(Cl)cc1)=N[C@@H](CC(=O)N1CCN(CCOc3cccc4ccc(-c5nc(CC(=O)NCC(=O)O)cs5)cc34)CC1)c1nnc(C)n1-2 [SJ46421]
Kd (KLHDC2^SBD [3]; [4]): 304 ± 39 nM | Kd (KLHDC2^SBD [3]; Kd, Rep1/Rep2, ITC source data Fig4a, syringe KLHDC2, cell PROTAC alone): 338 nM and 269 nM | ITC -TΔS (KLHDC2^SBD [3]; [5]): -1.03 +/- 0.22 kcal/mol-1 | ITC stoichiometry of binding N (KLHDC2^SBD [3]; [5]): 0.8 | ITC ΔG (KLHDC2^SBD [3]; [5]): -9.1 +/- 0.02 kcal/mol-1 | ITC ΔH (KLHDC2^SBD [3]; [5]): -8.07 +/- 0.22 kcal/mol-1
